The record followed here is PubChem BioAssay AID248 (DTP/NCI, 2004).

The test deals with L1210 leukemia ip in BDF1 mice, survival T/C. Kind of test: NCI In Vivo Anticancer Drug Screen. Data for tumor model L1210 Leukemia (intraperitoneal) in B6D2F1 (BDF1) mice. As to conditions: endpoint: mean survival time, higher = longer survival. The method, boiled down: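 Transplantable tumor model; survival measured in treated vs vehicle control mice. Value = treated/control.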

[1] abbreviates: dose: 100.0 mg/kg/injection, schedule: Q01DX001 (ip), vehicle: carboxymethylcellulose (CMC).
[2] abbreviates: dose: 50.0 mg/kg/injection, schedule: Q01DX009 (ip), vehicle: saline with Tween-80.
Where [3] appears, read: dose: 200.0 mg/kg/injection, schedule: Q01DX009 (ip), vehicle: saline with Tween-80.
Setting [4] is: dose: 100.0 mg/kg/injection, schedule: Q01DX001 (ip), vehicle: saline with Tween-80.
Setting [5] is: dose: 100.0 mg/kg/injection, schedule: Q01DX009 (ip), vehicle: saline with Tween-80.
[6] abbreviates: dose: 200.0 mg/kg/injection, schedule: Q01DX001 (ip), vehicle: saline with Tween-80.
Setting [7] is: dose: 400.0 mg/kg/injection, schedule: Q01DX001 (ip), vehicle: saline with Tween-80.
[8] abbreviates: dose: 400.0 mg/kg/injection, schedule: Q01DX009 (ip), vehicle: saline with Tween-80.
[9] abbreviates: dose: 100.0 mg/kg/injection, schedule: Q01DX001 (ip), vehicle: saline.
The mark [10] stands for this setting: dose: 200.0 mg/kg/injection, schedule: Q01DX001 (ip), vehicle: saline.
[11] abbreviates: dose: 400.0 mg/kg/injection, schedule: Q01DX001 (ip), vehicle: saline.
Setting [12] is: dose: 100.0 mg/kg/injection, schedule: Q01DX009 (ip), vehicle: saline.
[13] abbreviates: dose: 100.0 mg/kg/injection, schedule: Q04DX003 (ip), vehicle: saline.
[14] abbreviates: dose: 200.0 mg/kg/injection, schedule: Q01DX009 (ip), vehicle: saline.
Where [15] appears, read: dose: 200.0 mg/kg/injection, schedule: Q04DX003 (ip), vehicle: saline.
Where [16] appears, read: dose: 400.0 mg/kg/injection, schedule: Q01DX009 (ip), vehicle: saline.
Setting [17] is: dose: 400.0 mg/kg/injection, schedule: Q04DX003 (ip), vehicle: saline.
Setting [18] is: dose: 25.0 mg/kg/injection, schedule: Q01DX009 (ip), vehicle: saline with Tween-80.
[19] abbreviates: dose: 100.0 mg/kg/injection, schedule: Q04DX003 (ip), vehicle: Klucel (hydroxypropylcellulose) (HPC).
The mark [20] stands for this setting: dose: 200.0 mg/kg/injection, schedule: Q04DX003 (ip), vehicle: Klucel (hydroxypropylcellulose) (HPC).
Setting [21] is: dose: 400.0 mg/kg/injection, schedule: Q04DX003 (ip), vehicle: Klucel (hydroxypropylcellulose) (HPC).
[22] abbreviates: dose: 100.0 mg/kg/injection, schedule: Q01DX009 (ip), vehicle: Klucel (hydroxypropylcellulose) (HPC).
The mark [23] stands for this setting: dose: 50.0 mg/kg/injection, schedule: Q01DX001 (ip), vehicle: saline.

“And” between values parts separate entries of the source, which are not always exact repeats. Equal values may be shown once. Inconclusive results and toxic doses are left out.

Take `Cc1cc(N(CCCl)CCCl)ccc1/C=N\Nc1nncn1N`: the T/C (dose: 25.0 mg/kg/injection, schedule: Q01DX009 (ip), vehicle: carboxymethylcellulose (CMC)) is 122 % of control; the T/C under setting [1] is 100 % of control; the T/C (dose: 100.0 mg/kg/injection, schedule: Q01DX009 (ip), vehicle: carboxymethylcellulose (CMC)) is 154 % of control; the T/C (dose: 200.0 mg/kg/injection, schedule: Q01DX001 (ip), vehicle: carboxymethylcellulose (CMC)) was 100 % of control; the T/C (dose: 400.0 mg/kg/injection, schedule: Q01DX001 (ip), vehicle: carboxymethylcellulose (CMC)) was 102 % of control.

As for `CCOC(=O)N/N=C/C(Br)=C\c1ccccc1`, the T/C is, setting by setting: under setting [2], 93 % of control; (dose: 100.0 mg/kg/injection, schedule: Q04DX002 (ip), vehicle: saline with Tween-80) 101 % of control; under setting [3], 87 % of control; (dose: 200.0 mg/kg/injection, schedule: Q04DX002 (ip), vehicle: saline with Tween-80) 96 % of control.

As to `O=C(COc1cccc(Cl)c1)NCc1ccc([N+](=O)[O-])cc1`, the T/C was 96 % of control under setting [4]; 94 % of control under setting [5]; 93 % of control under setting [6]; 100 % of control under setting [3]; 101 % of control under setting [7]; 97 % of control under setting [8].

For the compound `CNc1ccc(C(=O)OC)cc1`, the T/C was 100 % of control under setting [9], 100 % of control under setting [10] and 103 % of control under setting [11].

`O=C(O)c1cc(-c2ccccc2)nc2c([N+](=O)[O-])cccc12`: the T/C (dose: 75.0 mg/kg/injection, schedule: Q01DX001 (ip), vehicle: acetone) was 95 % of control; the T/C (dose: 150.0 mg/kg/injection, schedule: Q01DX001 (ip), vehicle: acetone) was 92 % of control; the T/C (dose: 300.0 mg/kg/injection, schedule: Q01DX001 (ip), vehicle: acetone) was 108 % of control.

Take `CN(C)CCNS(=O)(=O)N(C)C`: the T/C runs as follows: under setting [12], 102 % of control; under setting [13], 95 % of control; under setting [14], 102 % of control; under setting [15], 100 % of control; under setting [16], 108 % of control; under setting [17], 97 % of control.

With `Nc1nc(=S)c2nnn(C3OC(CO)C(O)C3O)c2[nH]1` (stereo not given), the T/C is 104 % of control under setting [4], 104 % of control under setting [6] and 90 % of control under setting [7].

As to `O=C1c2c(c(O)c3ccccc3c2O)C(=O)C2CC=CCC12` (stereo not given), the T/C by setting is: under setting [18], 105 % of control; under setting [2], 110 % of control; under setting [5], 104 % of control; under setting [3], 104 % of control; under setting [8], 104 % of control.

Take `CSc1ncnc2c1N=CNN2`: the T/C (dose: 50.0 mg/kg/injection, schedule: Q01DX001 (ip), vehicle: carboxymethylcellulose (CMC)) is 94 % of control and the T/C under setting [1] was 95 % of control.

Consider `Cc1cc(C)c(CCc2cc(C)c(C)cc2C)cc1C`, for which the T/C under setting [5] is 93 % of control; the T/C under setting [19] is 104 % of control; the T/C under setting [3] was 92 % of control; the T/C under setting [20] is 93 % of control; the T/C under setting [8] was 87 % of control; the T/C under setting [21] is 109 % of control.

Take `Cc1ccccc1[P+](Cc1ccccc1)(c1ccccc1)c1ccccc1`: the T/C is 105 % of control (dose: 5.0 mg/kg/injection, schedule: Q01DX001 (ip), vehicle: saline); 103 % of control (dose: 10.0 mg/kg/injection, schedule: Q01DX001 (ip), vehicle: saline); 100 % of control (dose: 20.0 mg/kg/injection, schedule: Q01DX001 (ip), vehicle: saline).

As for `C=CCOCC(O)CNCC(O)COCC=C` (stereo not given), the T/C runs as follows: under setting [18], 98 % of control; (dose: 25.0 mg/kg/injection, schedule: Q04DX003 (ip), vehicle: saline with Tween-80) 100 % of control; under setting [2], 101 % of control; (dose: 50.0 mg/kg/injection, schedule: Q04DX003 (ip), vehicle: saline with Tween-80) 92 % of control; under setting [5], 101 % of control; (dose: 100.0 mg/kg/injection, schedule: Q04DX003 (ip), vehicle: saline with Tween-80) 102 % of control.

As to `C1=C(c2ccccc2)CC(/C=C/c2ccccc2)(c2ccccc2)C1c1ccccc1` (stereo not given), under setting [5], the T/C is 87 % of control.

For `O=[N+]([O-])c1ccc(N/N=C/c2cccc(CO)c2)c([N+](=O)[O-])c1`, the T/C under setting [5] is 98 % of control, the T/C under setting [3] is 95 % of control and the T/C under setting [8] is 100 % of control.

With `CN=C(N)c1ccc(N=C(N)c2ccc(N=C(N)c3ccc(NC(=O)c4ccc(C(=O)Nc5ccc(C(N)=Nc6ccc(C(N)=Nc7ccc(C(N)=NC)cc7)cc6)cc5)cc4)cc3)cc2)cc1`, the T/C is, setting by setting: (dose: 6.25 mg/kg/injection, schedule: Q01DX Z (ip), vehicle: water) 110 % of control; (dose: 12.5 mg/kg/injection, schedule: Q01DX Z (ip), vehicle: water) 120 % of control; (dose: 50.0 mg/kg/injection, schedule: Q01DX Z (ip), vehicle: water) 121 % of control.

On to `COc1cc2c(cc1OC(C)=O)CCCCC2=O`, for which the T/C under setting [9] is 101 % of control, the T/C under setting [10] was 103 % of control and the T/C under setting [11] was 101 % of control.

Turning to `Cc1ccc(CSC(=N)N)cc1`, the T/C under setting [1] was 104 % of control.

As to `CC1(C)C(=NNc2ccccc2)C(C)(C)C1=NNc1ccccc1`, the T/C is, setting by setting: (dose: 25.0 mg/kg/injection, schedule: Q01DX009 (ip), vehicle: Klucel (hydroxypropylcellulose) (HPC)) 93 % of control; under setting [22], 93 % of control and 88 % of control; under setting [19], 97 % of control; under setting [20], 96 % of control; under setting [21], 97 % of control.

With `O=C(/C=C/c1ccc(O)cc1)c1ccc(Cl)cc1`, the T/C runs as follows: under setting [9], 98 % of control; under setting [10], 87 % of control; under setting [11], 90 % of control.

For `Nc1nc2c(c(-c3ccc(Cl)cc3)n1)CN(c1ccc(Br)cc1)C2=O`, the T/C (dose: 50.0 mg/kg/injection, schedule: Q01DX009 (ip), vehicle: saline) is 95 % of control; the T/C under setting [12] is 108 % of control; the T/C under setting [13] was 97 % of control; the T/C under setting [14] was 92 % of control; the T/C under setting [15] is 100 % of control; the T/C under setting [17] was 92 % of control.

On to `Cn1cnc(C(N)=S)c1N`, for which the T/C is 98 % of control under setting [12]; 107 % of control under setting [13]; 105 % of control under setting [14]; 102 % of control under setting [15]; 96 % of control under setting [16]; 105 % of control under setting [17].

Take `O=c1[nH]c(=O)n(C2OC(CO)C(O)C2O)c2scnc12` (stereo not given): the T/C is 98 % of control (dose: 100.0 mg/kg/injection, schedule: Q01DX005 (ip), vehicle: saline) and 100 % of control (dose: 200.0 mg/kg/injection, schedule: Q01DX005 (ip), vehicle: saline).

`CN(C)/N=N\c1nc[nH]c1C(=O)NN`: the T/C is 107 % of control under setting [23], 101 % of control under setting [9], 107 % of control under setting [10] and 110 % of control under setting [11].

On to `OCC(F)(F)C(F)(F)C(F)(F)C(F)F`, for which the T/C is 94 % of control under setting [23]; 102 % of control under setting [9]; 101 % of control under setting [22]; 102 % of control under setting [19]; 96 % of control under setting [10]; 101 % of control (dose: 200.0 mg/kg/injection, schedule: Q01DX009 (ip), vehicle: Klucel (hydroxypropylcellulose) (HPC)). The T/C by setting is: under setting [20], 102 % of control; under setting [11], 94 % of control; (dose: 400.0 mg/kg/injection, schedule: Q01DX009 (ip), vehicle: Klucel (hydroxypropylcellulose) (HPC)) 103 % of control; under setting [21], 105 % of control.

`COC1OC(CO)C(O)C(O)C1NC(C)=O` (stereo not given): the T/C reads like this: under setting [9], 106 % of control; under setting [10], 103 % of control; under setting [11], 104 % of control.

Turning to `[O-][n+]1ccccc1C(c1ccccc1)c1ccccc1`, the T/C is, setting by setting: under setting [2], 90 % of control; under setting [5], 90 % of control; under setting [3], 90 % of control.
